According to ChEMBL document CHEMBL1212847, “Synthesis and pharmacology of 1-methoxy analogs of CP-47,497” (Bioorg Med Chem, 2010):
pKi: −log10 of the molar value.

What was measured:
Cannabinoid receptor 1 = Cannabinoid receptor 1 (Rattus norvegicus, UniProt P20272); assay: Displacement of [3H]CP-55940 from CB1 receptor in Sprague-Dawley rat brain cortex membranes; type: cell membranes, Membrane
Cannabinoid receptor 2 = Cannabinoid receptor 2 (Homo sapiens, UniProt P34972); assay: Displacement of [3H]CP-55940 from human CB2 receptor expressed in CHO cells after 1 hr by liquid scintillation spectrometry analysis; type: cell-based
Chain of Cannabinoid receptor 2 (P34972 whole entry): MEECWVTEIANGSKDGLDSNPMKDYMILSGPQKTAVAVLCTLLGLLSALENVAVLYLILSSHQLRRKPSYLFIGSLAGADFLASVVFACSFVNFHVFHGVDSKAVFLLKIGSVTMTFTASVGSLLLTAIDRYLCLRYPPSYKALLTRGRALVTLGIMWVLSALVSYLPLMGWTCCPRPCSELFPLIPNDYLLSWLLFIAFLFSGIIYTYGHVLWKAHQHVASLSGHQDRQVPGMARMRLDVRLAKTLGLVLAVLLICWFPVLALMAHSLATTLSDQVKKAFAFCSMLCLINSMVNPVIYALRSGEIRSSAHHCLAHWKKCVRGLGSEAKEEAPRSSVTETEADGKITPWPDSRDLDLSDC

Chain of Cannabinoid receptor 1 (P20272 whole entry): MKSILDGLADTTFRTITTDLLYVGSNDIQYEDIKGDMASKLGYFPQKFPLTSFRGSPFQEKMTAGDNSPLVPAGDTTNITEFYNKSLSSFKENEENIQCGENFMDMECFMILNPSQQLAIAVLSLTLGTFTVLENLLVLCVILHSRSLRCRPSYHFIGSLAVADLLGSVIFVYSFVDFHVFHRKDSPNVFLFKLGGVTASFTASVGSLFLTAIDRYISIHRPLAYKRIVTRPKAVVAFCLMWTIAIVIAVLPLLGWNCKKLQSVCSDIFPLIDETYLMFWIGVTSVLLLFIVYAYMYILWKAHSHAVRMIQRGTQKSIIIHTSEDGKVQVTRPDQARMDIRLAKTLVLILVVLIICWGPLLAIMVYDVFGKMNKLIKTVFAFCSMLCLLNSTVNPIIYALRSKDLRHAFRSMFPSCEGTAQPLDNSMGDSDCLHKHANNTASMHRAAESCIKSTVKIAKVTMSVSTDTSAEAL

Structure (SMILES)	pKi (Cannabinoid receptor 1)	pKi (Cannabinoid receptor 2)
CCCCCCC(C)(C)c1ccc([C@H]2CCC[C@@H](O)C2)c(O)c1	8.02	
CCCCCCC(C)(C)c1ccc([C@H]2CCC[C@@H](O)C2)c(OC)c1 (relative stereo)	< 5.00	6.09
CCCCCC(C)(C)c1ccc([C@H]2CCC[C@H](O)C2)c(OC)c1 (relative stereo)	5.38	6.16
CCCCCCC(C)(C)c1ccc([C@H]2CCC[C@H](O)C2)cc1 (relative stereo)	6.19	6.75
CCCCCC(C)(C)c1ccc([C@H]2CCC[C@@H](O)C2)c(OC)c1 (relative stereo)	5.36	6.26
